Measurements reported in patent US4387104A, “N-Substituted pyruvic acid hydrazones, preparation thereof and pharmaceutical compositions containing them” (Boehringer Mannheim GmbH, priority 1980, dated 1983).

Experiments:
[1] = test system: fasting glycemia (blood-glucose concentration); assay: threshold dose of blood-sugar-lowering activity in fasting guinea pigs; type: in vivo; settings: Cavia porcellus, ip; guinea pig, i.p., potassium salt, pH 7.4; significant lowering of fasting glycemia (p<0.05), N=4 per dose group
Protocol: (§1) To establish the pharmacological properties of the compounds in accordance with the invention, blood-sugar-lowering activity and resorption inhibition were determined in separate tests and compared with two structurally related compounds.
Fasting guinea pigs were used as experimental model to determine the threshold dose of the blood-lowering activity of the substances to be investigated. Food was withheld from the individual animals used in the investigation for 16 hours prior to the start of the tests. The animals were kept unfed throughout the testing period but had free access to drinking water.
The substances were administered through intraperitoneal injection of a solution of the potassium salt at pH 7.4.
A control group carried along in parallel was given an 0.9% NaCl solution.
The drawing of blood for determination of the glucose concentrations was effected immediately prior to administration of the substances and at one-hour intervals up to the fourth hour after the administration of the substances. To this end, an ear vein was carefully punctured with a No. 18 cannula, and the drops of blood issuing were picked up with a 10 μl capillary.
The blood-glucose concentration was determined in the hemolysate by the specific hexokinase method. To this end, the 10 μl blood sample was pipetted into a stabilizer solution containing digitonin as hemolysis accelerator and maleinimide as glycolysis inhibitor. Following this, an aliquot was taken from the hemolysate so obtained and determined by the hexokinase method on an LKB 8600 (made by LKB, Bromma, Sweden).
The dose which with the specified number of test animals per dose group (N=4) was just large enough to produce a significant lowering of fasting glycemia (p<0.05) was adopted as threshold dose.

[2] = test system: glucose resorption; assay: resorption-inhibiting activity (oral glucose loading) in fasting guinea pigs; type: in vivo; settings: Cavia porcellus, PIG1, ip, guinea pig, 1 g glucose p.o., AUC difference vs control; for inhibition in vivo at 40 mg/kg: dose 40 mg/kg i.p.; for inhibition in vivo at 20 mg/kg: dose 20 mg/kg i.p.; for inhibition in vivo at 10 mg/kg: dose 10 mg/kg i.p.
Protocol: as §1
To determine the effect on glucose resorption, oral glucose loading was effected. To this end, the substance to be tested was administered intraperitoneally as potassium salt, as described, to a group of ten fasting guinea pigs. At the same time, 1 g glucose was orally administered to the animals as a 20% solution by means of an esophageal bougie.
After a preliminary value has been established, up to […] blood was taken from the animals at close (20-minute) intervals for determination of the glucose concentrations, as described.
A control group carried along in parallel also was given 1 g glucose p.o., and intraperitoneally a corresponding amount of 0.9% NaCl solution.
The blood-glucose concentration was determined in the hemolysate by the hexokinase method, as described.
With regard to glucose resorption, the area under the concentration/time curve, calculated by means of the empirical trapeze formula, served as quantity to be measured. The difference in the area between the control and test groups, expressed in percent, was used as a measure for the inhibition of glucose resorption.

SMILES | minimal effective dose [1] | inhibition in vivo at 40 mg/kg [2] | inhibition in vivo at 20 mg/kg [2] | inhibition in vivo at 10 mg/kg [2] | inhibition in vivo at 15 mg/kg ([2]; dose 15 mg/kg i.p.)
CC(=NNCCOCc1ccccc1)C(=O)[O-].[Na+] [Example 2b, sodium 2-(2-benzyloxyethylhydrazono)-propionate] | > 50 mg/kg | 49.9% |  |  | 
C=CCOCCNN=C(C)C(=O)O [Example 3, 2-(2-Allyloxyethylhydrazono)-propionic acid] | 25 mg/kg |  | 9% |  | 
CC(=NNCCOc1ccc(C)cc1)C(=O)O [Example 1, 2-(2-p-Tolyloxyethylhydrazono)-propionic acid] | 25 mg/kg | 25% |  |  | 
CC(=NNCCOc1ccccc1)C(=O)O [Example 1b, 2-(2-phenoxyethylhydrazono)-propionic acid] | 25 mg/kg | 98% |  |  | 
CCOCCCCCNN=C(C)C(=O)O [Example 3b, 2-(5-ethoxypentylhydrazono)-propionic acid] | 20 to 25 mg/kg |  | 34% |  | 
CC(=NNCCc1ccccc1)C(=O)O [A, 2-(phenethylhydrazono)-propionic acid, reference compound] | 10 to 15 mg/kg |  |  | 0% | 
COCCCCCCNN=C(C)C(=O)O [Example 3a, 2-(6-methoxyhexylhydrazono)-propionic acid] | 20 mg/kg |  | 11% |  | 
COCCOCCNN=C(C)C(=O)[O-].[Na+] [Example 2a, sodium 2-[2-(2-methoxyethoxy)-ethylhydrazono]-propionate] | > 50 mg/kg | 37% |  |  | 
CC(=NNCCC1CCCCC1)C(=O)O [B, 2-(2-cyclohexylethylhydrazono)-propionic acid, reference compound] | 15 mg/kg |  |  |  | 0%
CC(=NNCCCOCc1ccccc1)C(=O)O [Example 3e, 2-(3-benzyloxypropylhydrazono)-propionic acid] | > 50 mg/kg | 44% |  |  | 
COCCSCCNN=C(C)C(=O)O [Example 3f, 2-[2-(2-methoxyethylthio)-ethylhydrazono]-propionic acid] | 25 mg/kg |  | 17.3% |  | 
CC(=NNCCSc1ccccc1)C(=O)[O-].[Na+] [Example 2d, sodium 2-(2-phenylthioethylhydrazono)-propionate] | 25 to 50 mg/kg | 33% |  |  | 
CC(=NNCCOCCC1CCCCC1)C(=O)O [Example 3d, 2-[2-(2-cyclohexylethoxy)-ethylhydrazono]-propionic acid] | > 50 mg/kg | 15% |  |  | 
C=CCSCCNN=C(C)C(=O)[O-].[Na+] [Example 2c, sodium 2-(2-allylthioethylhydrazono)-propionate] | 10 to 25 mg/kg |  |  | 16% | 
